Experimental findings from patent US20240093034A1, “FLUORESCENT DYES” (EXOPHARM LIMITED, priority 2020, published 2024) are described below.

For the experiment, the system named is MSC-EVs. Kind of experiment: Dye labelling of MSC-EV preparations analysed by imaging flow cytometry (IFCM). Here is the method: MSC-EVs were prepared form human platelet lysate containing MSC-conditioned media by polyethylene glycol 6000 precipitation followed by ultracentrifugation, as described previously (Borger, V. et al, 2020, Scaled Isolation of Mesenchymal Stem/Stromal Cell-Derived Extracellular Vesicles. Curr Protoc Stem Cell Biol 55, e128; Kordelas et al., 2014, MSC-derived exosomes: a novel tool to treat therapy-refractory graft-versus-host disease. Leukemia 28, 970-973; Ludwig et al., 2018, Precipitation with polyethylene glycol followed by washing and pelleting by ultracentrifugation enriches extracellular vesicles from tissue culture supernatants in small and large scales. J Extracell Vesicles 7, 1528109). Conditioned media were harvested every 48 h. Obtained MSC-EV preparations were diluted in NaCl-HEPES buffer (Sigma-Aldrich, Taufkirchen, Germany) such that 1 mL of final samples contained the preparation yield of the conditioned media of approximately 4.0×10^7 cells.
The staining with CFSE (Thermo Fisher Scientific, Darmstadt, Germany) was based on the manufacturer's protocol. Slight modifications were required to reduce the signal from unbound CFSE. Briefly, the CFSE stock solution was diluted to a working solution of 10 μM CFSE. The solution was centrifuged three times for 10 min at 17,000 × g. Subsequently, 25 μL of MSC-EV preparations, corresponding to the amount of EVs derived from 1×10^6 MSCs, were incubated with the centrifuged CFSE solution for 20 min at 37° C. The sample was diluted 1:20 to a final volume of 1 mL prior to analysis.
The staining of MSC-EV preparations with Calcein AM followed the manufacturer's instructions. Briefly, 25 μL of MSC-EV preparations were incubated with 25 μL of a 20 μM solution of Calcein AM (Thermo Fisher Scientific) for 40 min at 37° C. The sample was diluted 1:20 to a final volume of 1 mL to reduce background noise, avoiding the requirement of a washing step.
The staining of MSC-EV preparations with BODIPY-TR-Ceramide followed the manufacturer's instructions. Briefly, 25 μL of the MSC-EV preparation, corresponding to EVs purified from […], were incubated with 25 μL of a 20 μM solution of BODIPY TR Ceramide (Thermo Fisher Scientific) for 20 min at 37° C. 450 μL of 0.9% NaCl with 10mM HEPES (0.9% NaCl, Melsungen, B. Braun; HEPES, Thermo Fisher Scientific) buffer was added and the EVs were washed by using a Centrifugal Concentrator (Vivaspin 500; Sartorius, Gottingen, Germany). The retentate was adjusted to 500 μL prior to analysis.
The staining of MSC-EV preparations with PKH67 followed the manufacturer's instructions for labeling EVs (Thermo Fisher Scientific). Briefly, using 200 μL of given MSC-EV preparations, corresponding to EVs purified from 8×10^6 cells, the solution was adjusted with Diluent C to a final volume of 1 mL. […]

For Calcein AM [reference compound], the “labelling of sEVs in MSC-EV preparations (conclusion)” value (IFCM, with anti-CD9, anti-CD63, anti-CD81 counterstaining where done) is recorded as “do not Label”. The “labelled objects in MSC-EV preparations (FIG. 8)” value (dye + MSC-EVs) is given as “failed to label any detectable objects”.
